Data reported in patent publication US9365571B2, “Piperidino-pyrimidine derivatives for the treatment of viral infections” (Janssen Sciences Ireland UC, priority 2012, dated 2016).

Columns and labels:
Format in all cases: cell-based
[1] = test system: human TLR7; test: TLR7 cellular NFκB-luc reporter assay in transiently transfected HEK293 cells; details: Table IIC, lowest effective concentration, 6 hours incubation
Protocol: (§1) The ability of compounds to activate human TLR7 and/or TLR8 was assessed in a cellular reporter assay using HEK293 cells transiently transfected with a TLR7 or TLR8 expression vector and NFκB-luc reporter construct. In one instance the TLR expression construct expresses the respective wild type sequence or a mutant sequence comprising a deletion in the second leucine-rich repeat of the TLR.
(§2) Briefly, HEK293 cells were grown in culture medium (DMEM supplemented with 10% FCS and 2 mM Glutamine). For transfection of cells in 10 cm dishes, cells were detached with Trypsin-EDTA, transfected with a mix of CMV-TLR7 or TLR8 plasmid (750 ng), NFκB-luc plasmid (375 ng) and a transfection reagent and incubated overnight at 37° C. in a humidified 5% CO2 atmosphere. Transfected cells were then detached with Trypsin-EDTA, washed in PBS and resuspended in medium to a density of 1.67×10^5 cells/mL. Thirty microliters of cells were then dispensed into each well in 384-well plates, where 10 μL of compound in 4% DMSO was already present. Following 6 hours incubation at 37° C., 5% CO2, the luciferase activity was determined by adding 15 μl of Steady Lite Plus substrate (Perkin Elmer) to each well and readout performed on a ViewLux ultraHTS microplate imager (Perkin Elmer). Dose response curves were generated from measurements performed in quadruplicates. Lowest effective concentrations (LEC) values, defined as the concentration that induces an effect which is at least two fold above the standard deviation of the assay, were determined for each compound.

[2] = test system: human TLR8; test: TLR8 cellular NFκB-luc reporter assay in transiently transfected HEK293 cells; details: Table IIC, lowest effective concentration, 6 hours incubation
Protocol: as §1, §2

[3] = test system: PBMC-IFNa; test: PBMC-IFNa; details: Table IIC; lowest effective concentration; read-out: PBMC-IFNa (LEC)

| Structure (SMILES) | Human TLR7 (LEC, μM) [1] [µM] | Human TLR8 (LEC, μM) [2] [µM] | minimal effective concentration [3] [µM] |
| --- | --- | --- | --- |
| CCCC[C@@H](CCO)Nc1nc(N)nc2c1CN(C(=O)c1cccs1)CC2 [Compound 45] | 0.2 | 1.7 | 0.2 |
| CCCC[C@@H](CCO)Nc1nc(N)nc2c1CN(C(=O)c1cscn1)CC2 [Compound 46] | 0.6 | 3.5 | 0.2 |
| CCC[C@@H](CCO)Nc1nc(N)nc2c1CN(C(=O)c1cccs1)CC2 [Compound 47] | 0.2 | 1.1 | 0.2 |
| CCCC[C@@H](CCO)Nc1nc(N)nc2c1CN(C(=O)c1ccccc1)CC2 [Compound 48] | 1.2 | 3.9 | 0.3 |
| CCC[C@@H](CCO)Nc1nc(N)nc2c1CCN(C(=O)c1cccn1C)C2 [Compound 49] | 2.7 | 4.0 | 0.3 |
| CCCC[C@@H](CCO)Nc1nc(N)nc2c1CCN(C(=O)c1cccn1C)C2 [Compound 50] | 1.7 | 3.9 | 0.3 |
| CCCC[C@@H](CCO)Nc1nc(N)nc2c1CN(C(=O)c1cccn1C)CC2 [Compound 51] | 0.5 | 0.4 | 0.1 |
